According to US20240368664A1, “LIVE YEAST BIOSENSORS AND METHODS OF USE THEREOF” (priority 2021, published 2024):
No end group written: not given here.

Assays:
mutant SsSte2 = assay type: cell-based, Scheffersomyces stipites
SsSte2 mutants = assay type: cell-based, Scheffersomyces stipites

With KHWPQIAQFAPS [nucleocapsid epitope] the EC50 (mutant SsSte2) was about 10 µM and the “biosensor signal compared to signal in the presence of water” value (SsSte2 mutants) was “over twice as strong”.
